In ChEMBL document CHEMBL5728921, “Pyridylpyridone compounds” (2022):
pIC50: −log10 of the molar value.

Target: Phosphatidylinositol 3-kinase catalytic subunit type 3 (Homo sapiens, UniProt Q8NEB9)
Test: Biochemical Assay: Dilution series of compounds of the invention were prepared in DMSO at 100 times the final assay concentration (n1=n0/3 in 10 points). The compounds were further diluted to 4 times the assay concentration in assay buffer (Life technologies buffer Q, PV5125, diluted 5 times supplemented with 2 mM DTT and 2 mM MnCl2). 2.5 μl of the diluted compounds were added to a 384 well assay plate followed by 2.5 μl of 16.5 nM Vps34 enzyme (Life technologies, PV5126). Enzyme and compounds were pre-incubated at rt for 15 min. Then 5 μl of substrate mix containing 20 μM ATP (Life technologies, PV3227) and 200 μM PI:PS substrate (Life technologies, PV5122) in assay buffer was added to the wells containing compound and enzyme. Mixing was performed by pipetting several times. The reaction was incubated at room temperature for 1 h. Then 5 μl stop-detection mix, prepared as described in the Adapta kinase assay kit instructions (Life technologies, PV5099) containing Adapta Eu-anti-ADP antibody (2.3 nM), Alexa Fluor 647 ADP tracer (9 nM) and EDTA (30 mM) in TR-FRET buffer, was added to quench the reaction. Mixing was performed by pipetting several times. The assay plate was then incubated at room temperature for 30 min and read with Artemis micro plate reader. Percent inhibition of the compounds as compared to DMSO treated control samples was calculated.

Chain of Phosphatidylinositol 3-kinase catalytic subunit type 3 (Q8NEB9 whole entry): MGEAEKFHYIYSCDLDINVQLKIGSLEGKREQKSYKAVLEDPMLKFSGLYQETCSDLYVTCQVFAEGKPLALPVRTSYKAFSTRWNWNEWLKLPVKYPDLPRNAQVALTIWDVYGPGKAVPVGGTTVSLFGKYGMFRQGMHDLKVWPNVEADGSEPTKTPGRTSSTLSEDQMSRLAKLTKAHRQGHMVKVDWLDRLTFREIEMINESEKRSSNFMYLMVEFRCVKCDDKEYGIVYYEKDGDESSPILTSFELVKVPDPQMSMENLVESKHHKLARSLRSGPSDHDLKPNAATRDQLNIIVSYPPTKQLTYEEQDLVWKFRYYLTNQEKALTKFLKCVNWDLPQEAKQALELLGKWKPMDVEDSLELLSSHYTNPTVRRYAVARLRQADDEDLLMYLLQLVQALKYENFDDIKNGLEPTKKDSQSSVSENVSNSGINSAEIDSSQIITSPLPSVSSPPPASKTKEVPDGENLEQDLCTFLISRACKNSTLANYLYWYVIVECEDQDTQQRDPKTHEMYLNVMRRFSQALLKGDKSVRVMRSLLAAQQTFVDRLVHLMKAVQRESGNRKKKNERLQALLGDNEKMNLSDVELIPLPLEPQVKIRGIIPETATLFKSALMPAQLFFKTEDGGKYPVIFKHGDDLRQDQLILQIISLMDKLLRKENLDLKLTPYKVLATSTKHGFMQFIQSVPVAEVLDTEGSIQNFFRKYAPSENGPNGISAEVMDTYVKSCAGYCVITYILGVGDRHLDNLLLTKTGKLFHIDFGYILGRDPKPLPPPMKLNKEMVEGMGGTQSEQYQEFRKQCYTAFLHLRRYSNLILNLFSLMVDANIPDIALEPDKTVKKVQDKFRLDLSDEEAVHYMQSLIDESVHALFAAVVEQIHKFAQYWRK

Q: With `CC(=O)Nc1cc(-c2cc(-c3ccccc3Cl)[nH]c(=O)c2)ccn1` as the molecule, how does the pIC50 read?
A: Its pIC50 is greater than 8.30.
